This is an account of results in ChEMBL document CHEMBL1153863, “Evaluation of the local anaesthetic activity of 3-aminobenzo[d]isothiazole derivatives using the rat sciatic nerve model” (2009).

Format in all cases: functional
A short description of assay [1]: Local anaesthetic activity in rat sciatic nerve assessed as time required to decrease compound action potential to 50 %.
The nature of assay [2]: Local anaesthetic activity in rat sciatic nerve assessed as time required to decrease compound action potential to recover to 50 %.
Assay [3] in a line: Local anaesthetic activity in rat sciatic nerve assessed as time required to decrease compound action potential to 100 %.
Assay [4] in a line: Local anaesthetic activity in rat sciatic nerve assessed as time required to decrease compound action potential to 50 % relative to Lidocaine. Set-up: scale not given: the % may be the effect or the level left.
Assay [5] is described as follows: Local anaesthetic activity in rat sciatic nerve assessed as time required to decrease compound action potential to 100 % relative to Lidocaine. Further details: scale not given: the % may be the effect or the level left.
The nature of assay [6]: Local anaesthetic activity in rat sciatic nerve assessed as vitality time.
A short description of assay [7]: Local anaesthetic activity in rat sciatic nerve assessed as time required to decrease compound action potential to recover to 50 % at 1.5%.
Assay [8] is described as follows: Local anaesthetic activity in rat sciatic nerve assessed as time required to decrease compound action potential to 100 % at 1.5%.
A short description of assay [9]: Local anaesthetic activity in rat sciatic nerve assessed as vitality time at 1.5%.
Assay [10] is described as follows: Local anaesthetic activity in rat sciatic nerve assessed as time required to decrease compound action potential to 100 % at 1.5% relative to Lidocaine. Further details: scale not given: the % may be the effect or the level left.
Assay [11] is described as follows: Local anaesthetic activity in rat sciatic nerve assessed as time required to decrease compound action potential to 50 % at 1.5%.
The nature of assay [12]: Local anaesthetic activity in rat sciatic nerve assessed as time required to decrease compound action potential to 50 % at 1.5% relative to Lidocaine. Further details: scale not given: the % may be the effect or the level left.

In the case of `Cc1ccc2snc(NC(=O)C(C)N3CCOCC3)c2c1` (centres undefined), in assay [1], the IT50 is recorded as 2.23 min. Moreover, in assay [2], the RT50 is 60 min. In addition, in assay [3], the IT100 was 20 min. Moreover, the Activity in assay [4] stood at 140.8%; in [5] it was 70%. Further, the VT50 in assay [6] amounted to 738 min.

With `CCN(CC)CC(=O)Nc1nsc2ccccc12`, in [7], the RT50 is 121.5 min. For the same compound, in assay [8], the IT100 is reported as 53.9 min. Further, the VT50 in [9] is given as 600 min. The Activity was found to be 26% in assay [10] and 26.2% in assay [12]. Also, the IT50 in assay [11] was determined as 12 min.

As for `Cc1ccc2snc(NC(=O)C(C)NC3CCCCC3)c2c1` (centres undefined), the IT50 in assay [1] amounted to 39 min. In addition, the IT100 in assay [3] is listed as 42.5 min. Also, the Activity in assay [4] worked out at 8.1%; in assay [5], 32.9%.

Turning to `CC(C(=O)Nc1nsc2ccccc12)N1CCCCC1` (centres undefined), the IT50 in assay [1] amounted to 8.9 min. Further, the RT50 in assay [2] turned out to be 58 min. Also, the IT100 in [3] is recorded as 20.9 min. The results for the Activity in assay [4] and in [5] were 21.7% and 73.7%, respectively. Further, the VT50 in assay [6] is listed as 500 min.

`CC(C(=O)Nc1nsc2ccccc12)N(C)C` (centres undefined): the IT50 in [1] was 7.4 min. The RT50 in assay [2] was 77 min. In [3], the IT100 was found to be 14 min. In addition, the Activity is listed as 18.8% in assay [4] and 70% in assay [5]. Further, the VT50 in [6] was 690 min.

With `CCNC(C)C(=O)Nc1nsc2ccc(C)cc12` (centres undefined), the IT50 in [1] came out at 4.2 min. The RT50 in [2] is on record as 100 min. The IT100 in assay [3] amounted to 12.9 min. In addition, the Activity in assay [4] is 74.8%; in assay [5] it was 108.5%. Besides, the VT50 in assay [6] is given as 702 min.

Turning to `CNCC(=O)Nc1nsc2ccccc12`, the IT50 in [1] turned out to be 10 min. For the same compound, the RT50 in assay [2] is recorded as 48 min. The IT100 in assay [3] came out at 34 min. In addition, the Activity amounted to 31.4% in [4] and 41.2% in assay [5]. Besides, the VT50 in [6] is 786 min.

Regarding `O=C(CN1CCC(c2ccccc2)CC1)Nc1nsc2ccccc12`, the IT50 in [1] is reported as 18.5 min. Moreover, the Activity in assay [4] is listed as 17%.

With `CNC(C)C(=O)Nc1nsc2ccccc12` (centres undefined), in assay [1], the IT50 stood at 12.8 min. The RT50 in [2] is 68 min. The IT100 in [3] is 26.7 min. Further, the Activity in assay [4] was 24.5%; in assay [5] it was 121.7%. For the same compound, in [6], the VT50 is reported as 450 min.

For the compound `CCCNC(C)C(=O)Nc1nsc2ccccc12` (centres undefined), in assay [1], the IT50 was determined as 5.3 min. Also, the RT50 in assay [2] is reported as 88.9 min. Besides, the IT100 in assay [3] was 24.1 min. In addition, the Activity in assay [4] was 31.4%; in assay [5], 70%. For the same compound, in [6], the VT50 was 750 min.

Take `CC(NC1CCCCC1)C(=O)Nc1nsc2ccccc12` (centres undefined): the IT50 in assay [1] is listed as 5.8 min. Moreover, in [2], the RT50 is 52.3 min. Further, the IT100 in assay [3] is recorded as 25.3 min. Moreover, the Activity in [4] is 44.9%; in assay [5] it was 63.6%.

On to `CCN(CC)C(C)C(=O)Nc1nsc2ccccc12` (centres undefined), for which the IT50 in assay [1] is recorded as 3.85 min. Also, the RT50 in assay [2] was 57.7 min. The IT100 in assay [3] is 14.1 min. Also, the Activity in assay [4] worked out at 49.8%; in [5], 84.8%. Also, the VT50 in [6] is on record as 404.2 min.

In the case of `CNC(C)C(=O)Nc1nsc2ccc(C)cc12` (centres undefined), in assay [1], the IT50 was found to be 6.6 min. The RT50 in [2] came to 60 min. In addition, the IT100 in assay [3] was 20 min. The figures for the Activity in assay [4] and in [5] were 47.6% and 70%, respectively. In addition, in assay [6], the VT50 is given as 780 min.

For the compound `Cc1ccc2snc(NC(=O)C(C)N3CCCC3)c2c1` (centres undefined), in assay [1], the IT50 turned out to be 1.75 min. The RT50 in assay [2] stood at 122 min. For the same compound, the IT100 in assay [3] amounted to 17.5 min. The Activity is given as 179% in assay [4] and 80% in [5]. Further, the VT50 in assay [6] is on record as 498 min.

Take `O=C(CCN1CCCC1)Nc1nsc2ccccc12`: in assay [1], the IT50 was determined as 10 min. In addition, in assay [2], the RT50 turned out to be 136.6 min. The IT100 in [3] turned out to be 20.4 min. Further, the values for the Activity in assay [4] and in assay [5] were 31.4% and 68.6%, respectively. The VT50 in [6] is listed as 870 min.

Regarding `CCNC(C)C(=O)Nc1nsc2ccccc12` (centres undefined), in [1], the IT50 worked out at 4.2 min. Also, in assay [2], the RT50 was 100 min. The IT100 in assay [3] amounted to 12.9 min. Besides, the Activity is on record as 74.8% in [4] and 108.5% in assay [5]. Also, the VT50 in assay [6] was 861 min.

As for `CC(C(=O)Nc1nsc2ccccc12)N1CCOCC1` (centres undefined), the IT50 in assay [1] is recorded as 11.8 min. The RT50 in [2] is listed as 126 min. The IT100 in assay [3] is 23 min. For the same compound, the Activity in [4] was determined as 26.6%; in [5], 60.9%. Moreover, the VT50 in [6] is 350 min.

Regarding `CN(C)CC(=O)Nc1nsc2ccccc12`, in assay [1], the IT50 is listed as 10.5 min. Also, in assay [2], the RT50 stood at 100 min. In addition, the Activity in [4] is recorded as 29.9%. Besides, the VT50 in assay [6] was 250 min.

As for `CCCNCC(=O)Nc1nsc2ccccc12`, the IT50 in assay [1] is 10 min. Also, the RT50 in assay [2] was determined as 200 min. Moreover, in [3], the IT100 is 17.5 min. Further, the Activity came to 31.4% in assay [4] and 80% in assay [5]. In assay [6], the VT50 came to 250 min.

For `CCNCCC(=O)Nc1nsc2ccccc12`, the IT50 in assay [1] was 26.1 min. Besides, in [2], the RT50 was determined as 154.8 min. Further, in [3], the IT100 came out at 79.5 min. Further, the Activity was found to be 12% in assay [4] and 17.6% in assay [5]. In addition, the VT50 in assay [6] is given as 400.8 min.

Consider `CC(C)NCC(=O)Nc1nsc2ccccc12`, for which the IT50 in [1] is 12.13 min. In assay [2], the RT50 stood at 150 min. Moreover, the IT100 in assay [3] was 30.2 min. Also, the Activity in assay [4] was 25.9%; in assay [5], 46.4%.

Take `O=C(CCN1CCOCC1)Nc1nsc2ccccc12`: the IT50 in assay [1] is given as 7 min. In addition, the RT50 in [2] came out at 86 min. In assay [3], the IT100 was found to be 17.9 min. For the same compound, the Activity in [4] is 44.9%; in assay [5] it was 78.2%.

Turning to `CNCCC(=O)Nc1nsc2ccccc12`, in [1], the IT50 is given as 10.75 min. In addition, the RT50 in assay [2] worked out at 136 min. Also, in [3], the IT100 is given as 20.5 min. Moreover, the results for the Activity in assay [4] and in [5] were 29.2% and 68.3%, respectively. Besides, the VT50 in assay [6] came to 839 min.

Consider `CC(C(=O)Nc1nsc2ccccc12)N1CCCC1` (centres undefined), for which, in assay [1], the IT50 stood at 7.7 min. In [2], the RT50 is listed as 135 min. In addition, the IT100 in assay [3] was 11.6 min. The Activity in assay [4] is recorded as 40.8%; in assay [5], 120.7%. Also, the VT50 in assay [6] was found to be 600 min.

For `CCCNC(C)C(=O)Nc1nsc2ccc(C)cc12` (centres undefined), the IT50 in [1] is 7.4 min. In addition, the IT100 in assay [3] is on record as 14.8 min. In addition, the results for the Activity in assay [4] and in [5] were 23.6% and 65.1%, respectively. The VT50 in [6] is 365 min.

Take `O=C(CN1CCCC1)Nc1nsc2ccccc12`: the IT50 in [1] worked out at 5 min; in assay [11], 11.9 min. Besides, the figures for the RT50 in assay [7] and in [2] were 101.5 min and 105 min, respectively. Also, the figures for the IT100 in assay [8] and in assay [3] were 28.3 min and 14 min, respectively. The VT50 in assay [9] was found to be 705.5 min; in assay [6], 610 min. The Activity in assay [10] amounted to 49.5%; in assay [4], 62.8%; in [5], 100%; in [12] it was 26.4%.

Consider `Cc1ccc2snc(NC(=O)C(C)N(C)C)c2c1` (centres undefined), for which, in assay [1], the IT50 turned out to be 11.6 min. In addition, in assay [2], the RT50 worked out at 162 min. For the same compound, the IT100 in assay [3] is 23.75 min. Also, the Activity is reported as 25.7% in assay [4] and 75.7% in assay [5]. Also, the VT50 in [6] was 1012 min.

In the case of `Cc1ccc2snc(NC(=O)C(C)N3CCCCC3)c2c1` (centres undefined), the IT50 in assay [1] came out at 11 min. Moreover, in assay [3], the IT100 was determined as 37 min. Besides, the Activity came out at 28.5% in assay [4] and 37.8% in [5].

`CC1CCN(CC(=O)Nc2nsc3ccccc23)CC1`: the IT50 in [1] is 25.5 min. The RT50 in assay [2] was 122 min. In addition, the IT100 in assay [3] stood at 37.45 min. Besides, the Activity is on record as 12.3% in assay [4] and 37.4% in assay [5]. In addition, the VT50 in assay [6] is 930 min.

As for `O=C(CN1CCCCC1)Nc1nsc2ccccc12`, the IT50 in assay [1] amounted to 7 min; in assay [11] it was 8.05 min. Further, the results for the RT50 in [7] and in assay [2] were 141.2 min and 142.7 min, respectively. In addition, the IT100 in assay [8] amounted to 23.4 min; in assay [3], 16 min. The figures for the VT50 in assay [9] and in [6] were 555.8 min and 500 min, respectively. Besides, the Activity in assay [10] is reported as 59.8%; in assay [4], 44.9%; in assay [5], 87.5%; in assay [12], 39%.

Regarding `CCN(CC)CC(=O)Nc1c(C)cccc1C` [LIDOCAINE], the IT50 in assay [1] stood at 3.14 min. In addition, the RT50 in assay [2] is reported as 48.75 min. For the same compound, the IT100 in assay [3] is recorded as 14 min. Further, the Activity in [4] and in [5] was 100% each time. Also, in assay [6], the VT50 worked out at 660 min.
